Measurements published in the Deep4Chem optical property database.
Values belong to the compound of their own block, whether it stands above or below them.

Assay: solvent given as SMILES

- fluorescence lifetime (in ClCCl): 3.8 ns
Compound: C[Si]1(C)c2ccc(C#Cc3ccccc3)cc2C=Cc2cc(C#Cc3ccccc3)ccc21

- fluorescence lifetime (in CC#N): 16.9 ns
Compound: COc1cc(/C=C/c2ccccc2)cc(OC)c1

- fluorescence lifetime (in C1CCCCC1): 1 ns
- fluorescence lifetime (in ClC(Cl)Cl): 2 ns
Compound: CN(C)c1ccc(-c2ccc(-c3nc(C#N)c(C#N)n3C)cc2)cc1

- fluorescence lifetime (in ClCCl): 0.2 ns
Compound: CC1=C(c2ccc(N(c3ccccc3)c3ccccc3)cc2)C(C)=[N+]2C1=C(c1c(-c3ccccn3)nc3ccccn13)c1c(C)cc(C)n1[B-]2(F)F

- fluorescence lifetime (in C1CCCCC1): 2.4 ns
- fluorescence lifetime (in CC#N): 3.5 ns
- fluorescence lifetime (in ClCCl): 3.3 ns
Compound: O=S1c2ccccc2-c2cc(-c3c4ccccc4cc4ccccc34)ccc21 (stereo unspecified)

- fluorescence lifetime (in ClC(Cl)Cl): 0.0093 ns
Compound: CCCCCCN1C(=O)c2cccc3c(-c4ccc(Cl)s4)ccc(c23)C1=O

- fluorescence lifetime (in ClC(Cl)Cl): 2.6 ns
Compound: CN(C)c1ccc(C2=Cc3c4ccccc4c4ccccc4[n+]3[B-](F)(F)O2)cc1

- fluorescence lifetime (in CCO): 2.26 ns
- fluorescence lifetime (in O): 1.86 ns
Compound: CN(C)c1ccc2cc3ccc(=[N+](C)C)cc-3oc2c1

- fluorescence lifetime (in c1ccccc1): 6 ns
Compound: O=c1oc2c(ccc3ccccc32)nc1-c1ccccc1

- fluorescence lifetime (in ClCCl): 6.4 ns
Compound: F[B-]1(F)n2c(c3cccc4cccc2c43)=Nc2cccc(Cl)[n+]21

- fluorescence lifetime (in ClCCl): 1.51 ns
Compound: CCCCCCn1c2ccccc2c2cc(-c3ccc(-c4cc(-c5ccccn5)nc(-c5ccccn5)c4)cc3)ccc21

- fluorescence lifetime (in c1cc(-c2cccc(-n3c4ccccc4c4ccccc43)c2)cc(-n2c3ccccc3c3ccccc32)c1): 5.47 ns
- fluorescence lifetime (in c1cc(-n2c3ccccc3c3ccccc32)cc(-n2c3ccccc3c3ccccc32)c1): 5.47 ns
Compound: O=c1c2ccccc2n2c3ccccc3c(=O)c3cc(-c4ccccc4)cc1c32

- fluorescence lifetime (in C1CCCCC1): 0.49 ns
Compound: COC(=O)c1nc(Br)c(-c2ccccc2)o1

- fluorescence lifetime (in C1CCCCC1): 3.01 ns
- fluorescence lifetime (in CCOC(C)=O): 0.938 ns
Compound: CC1=[N+]2C(=C(c3ccc(Br)cc3)c3ccc(C)n3[B-]2(F)F)C=C1c1cc2n(c1)[B-](F)(F)[N+]1=CC=CC1=C2c1c(C)cc(C)cc1C

- fluorescence lifetime (in ClC(Cl)Cl): 0.958 ns
Compound: COc1ccc(C2=Cc3c4ccccc4cc[n+]3[B-](F)(F)O2)cc1

- fluorescence lifetime (in ClCCl): 4.6 ns
Compound: COc1ccc(C#Cc2c3cc4ccccc4cc3c(C#Cc3ccc(OC)cc3)c3cc4ccccc4cc23)cc1

- fluorescence lifetime (in ClCCl): 6.6 ns
Compound: F[B-]1(F)n2c(c3cccc4cccc2c43)=Nc2sc3ccccc3[n+]21

- fluorescence lifetime (in CC#N): 0.35 ns
- fluorescence lifetime (in CCO): 4.2 ns
- fluorescence lifetime (in CCOC(C)=O): 0.066 ns
- fluorescence lifetime (in CO): 6.7 ns
- fluorescence lifetime (in ClC(Cl)Cl): 0.57 ns
- fluorescence lifetime (in OCC(F)(F)F): 13 ns
Compound: COc1ccc2cc3c(C)cc(=O)oc3cc2c1

- fluorescence lifetime (in ClCCl): 5.5 ns
Compound: Fc1ccc(N(c2ccccc2)c2ccc3ccc4c(N(c5ccccc5)c5ccc(F)cc5)ccc5ccc2c3c54)cc1

- fluorescence lifetime (in CC#N): 1.86 ns
- fluorescence lifetime (in CCCCCC): 0.62 ns
Compound: CN(c1ccccc1)c1ccc(/C=C/c2ccccc2)cc1

- fluorescence lifetime (in C1CCOC1): 0.93 ns
- fluorescence lifetime (in C1COCCO1): 3.6 ns
- fluorescence lifetime (in CC#N): 2.17 ns
- fluorescence lifetime (in CC(C)O): 1.86 ns
- fluorescence lifetime (in CCCCO): 0.96 ns
- fluorescence lifetime (in CCCO): 2.03 ns
- fluorescence lifetime (in CCOC(C)=O): 1.05 ns
- fluorescence lifetime (in CN(C)C=O): 1.77 ns
- fluorescence lifetime (in CO): 0.59 ns
- fluorescence lifetime (in CS(C)=O): 1.92 ns
- fluorescence lifetime (in ClC(Cl)Cl): 2.54 ns
- fluorescence lifetime (in O): 1.36 ns
Compound: N#Cc1coc2ccccc2c1=O

- fluorescence lifetime (in C1CCCCC1): 0.75 ns
- fluorescence lifetime (in CC#N): 0.84 ns
Compound: FC(F)(F)c1ccc(/C=C/c2nc3c(ccc4ccccc43)s2)cc1

More lines, now with the values behind:

Compound: Cc1ccc(N(CC(=O)[O-])CC(=O)[O-])cc1OCCOc1cc(-c2cc3ccc(C(=O)[O-])cc3[nH]2)ccc1N(CC(=O)[O-])CC(=O)[O-]
- fluorescence lifetime (in O): 1.4 ns

Compound: c1ccc([C@]23CC[C@H](CC2)N=N3)cc1
- fluorescence lifetime (in CC#N): 2.5 ns

Compound: COc1cc2c(cc1-c1ccc(N(c3ccccc3)c3ccccc3)cc1)Cc1c3c(c4c(c1-2)-c1cc(OC)c(-c2ccc(N(c5ccccc5)c5ccccc5)cc2)cc1C4)C(=O)N(CCC(C)C)C3=O
- fluorescence lifetime (in C1CCOC1): 4.14 ns

Compound: CC(C)c1cccc(C(C)C)c1N1C(=O)c2cc(Cl)c3c4c(Cl)cc5c6c(cc(Cl)c(c7c(Cl)cc(c2c37)C1=O)c64)C(=O)N(c1c(C(C)C)cccc1C(C)C)C5=O
- fluorescence lifetime (in Cc1ccccc1): 5.11 ns

Compound: Cc1cccc(C)c1/C=C/c1nc(N2CCOCC2)c2c([n+]1[O-])CCCC2
- fluorescence lifetime (in ClCCl): 9.1 ns

Compound: CC1=[N+]2C(=C(c3ccccc3)c3ccc(C)n3[B-]2(F)F)C=C1
- fluorescence lifetime (in C1CCCCC1): 1.94 ns
- fluorescence lifetime (in CC#N): 1.33 ns
- fluorescence lifetime (in CCOC(C)=O): 1.71 ns
- fluorescence lifetime (in CO): 1.46 ns
- fluorescence lifetime (in Cc1ccccc1): 2.65 ns
- fluorescence lifetime (in ClC(Cl)Cl): 2.65 ns

Compound: CCCCCCOc1ccc(C#Cc2ccc(C#CC#Cc3ccc(C#Cc4ccc(OCCCCCC)c(OCCCCCC)c4)c4nsnc34)c3nsnc23)cc1OCCCCCC
- fluorescence lifetime (in CN(C)C=O): 0.5 ns
- fluorescence lifetime (in COc1ccccc1): 2.2 ns
- fluorescence lifetime (in Cc1ccccc1): 1.9 ns
- fluorescence lifetime (in ClC(Cl)Cl): 2.6 ns
- fluorescence lifetime (in ClCCCl): 2 ns
- fluorescence lifetime (in ClCCl): 2.5 ns

Compound: Cc1ccc(-c2ccc(-c3ccc(-c4ccc(C)cc4)cc3/C(=C(/c3ccccc3)c3cc(-c4ccc(C)cc4)ccc3-c3ccc(-c4ccc(C)cc4)cc3)c3ccccc3)cc2)cc1
- fluorescence lifetime (in C1CCOC1): 8.6 ns

Compound: CCC1(CC)c2cc(-c3ccc(C(C)(C)C)cc3)ccc2-c2ccc(-c3ccc4c(c3)C(CC)(CC)c3cc(-c5ccc6c(c5)C(CC)(CC)c5cc(-c7ccc(C(C)(C)C)cc7)ccc5-6)ccc3-4)cc21
- fluorescence lifetime (in CCCCC): 0.65 ns
- fluorescence lifetime (in CCCCCC): 0.62 ns
- fluorescence lifetime (in CCCCCCC): 0.61 ns
- fluorescence lifetime (in CCCCCCCC): 0.64 ns
- fluorescence lifetime (in CCCCCCCCC): 0.62 ns
- fluorescence lifetime (in CCCCCCCCCC): 0.64 ns
- fluorescence lifetime (in CCCCCCCCCCCC): 0.64 ns
- fluorescence lifetime (in CCCCCCCCCCCCC): 0.65 ns
- fluorescence lifetime (in CCCCCCCCCCCCCCC): 0.64 ns
- fluorescence lifetime (in CCCCCCCCCCCCCCCC): 0.63 ns
- fluorescence lifetime (in CCCCCCCCCCO): 0.64 ns
- fluorescence lifetime (in CCCCCCCCCO): 0.64 ns
- fluorescence lifetime (in CCCCCCCCO): 0.63 ns
- fluorescence lifetime (in CCCCCCCO): 0.64 ns
- fluorescence lifetime (in CCCCCCO): 0.64 ns
- fluorescence lifetime (in CCCCCO): 0.65 ns
- fluorescence lifetime (in CCCCO): 0.64 ns
- fluorescence lifetime (in CCCO): 0.65 ns
- fluorescence lifetime (in CCO): 0.67 ns
- fluorescence lifetime (in CO): 0.67 ns

Compound: CC(C)(C)c1ccc2c(c1)[nH]c1c3[nH]c4cc(C(C)(C)C)ccc4c3c3nsnc3c21
- fluorescence lifetime (in CN(C)C=O): 2.29 ns
- fluorescence lifetime (in Cc1ccccc1): 1.5 ns
- fluorescence lifetime (in ClCCl): 2.61 ns

Compound: CC1(CCCCC(=O)NCCCCCCO)C(/C=C/C=C/C=C2/N(CCCS(=O)(=O)[O-])c3ccc(S(=O)(=O)[O-])cc3C2(C)C)=[N+](CCCS(=O)(=O)[O-])c2ccc(S(=O)(=O)[O-])cc21 (stereo unspecified)
- fluorescence lifetime (in O): 1 ns

Compound: CN(C)c1ccc(C2=Nc3sc4ccccc4[n+]3[B-](F)(F)O2)cc1
- fluorescence lifetime (in Cc1ccccc1): 1.74 ns

Compound: CCN(CC)c1ccc(/C=C/c2ccc(-c3ccc(/C=C/c4ccc(N(CC)CC)cc4)s3)s2)cc1
- fluorescence lifetime (in C1CCOC1): 1.1 ns
- fluorescence lifetime (in CC#N): 1.14 ns
- fluorescence lifetime (in CC(C)=O): 1.11 ns
- fluorescence lifetime (in CN(C)C=O): 1.18 ns
- fluorescence lifetime (in Cc1ccccc1): 1.02 ns

Compound: CC(C)(C)c1ccc2c(c1)c1cc3c4cc(C(C)(C)C)ccc4c4c5c6ccc(C(C)(C)C)cc6c6cc7c8cc(C(C)(C)C)ccc8c8c2c1c(c34)c(c78)c65
- fluorescence lifetime (in CCCCCC): 0.61 ns
- fluorescence lifetime (in CCOCC): 0.618 ns
- fluorescence lifetime (in Cc1ccccc1): 0.606 ns

Compound: COc1ccc(C2=C3C=CC(C)=[N+]3[B-](F)(F)n3c(C)ccc32)cc1
- fluorescence lifetime (in C1CCCCC1): 2.87 ns
- fluorescence lifetime (in CC#N): 1.6 ns
- fluorescence lifetime (in CCOC(C)=O): 2.24 ns
- fluorescence lifetime (in CO): 1.87 ns
- fluorescence lifetime (in Cc1ccccc1): 3.35 ns
- fluorescence lifetime (in ClC(Cl)Cl): 3.28 ns

Compound: O=C([O-])c1ccccc1-c1c2cc(I)c(=O)c(I)c-2oc2c(I)c([O-])c(I)cc12
- fluorescence lifetime (in CC(C)O): 0.66 ns
- fluorescence lifetime (in CCO): 0.565 ns
- fluorescence lifetime (in CO): 0.5 ns
- fluorescence lifetime (in O): 0.115 ns

Compound: CCC1(CC)c2ccccc2-c2c1c1c(c3c2C(CC)(CC)c2cc(B(c4c(C)cc(C)cc4C)c4c(C)cc(C)cc4C)ccc2-3)C(CC)(CC)c2ccccc2-1
- fluorescence lifetime (in C1CCOC1): 3.2 ns

Compound: CCC1=C(C)C2=C(C)c3cc(I)c(I)n3[B-](F)(F)[N+]2=C1C
- fluorescence lifetime (in C1CCCCC1): 1.02 ns
- fluorescence lifetime (in CC(C)=O): 0.82 ns
- fluorescence lifetime (in CCO): 0.939 ns
- fluorescence lifetime (in CCOC(C)=O): 0.893 ns
- fluorescence lifetime (in CO): 0.882 ns
- fluorescence lifetime (in OCC(F)(F)F): 0.779 ns

Compound: CCCCCCCCC1(CCCCCCCC)c2cc(-c3ccc(C(=O)OC)cc3)ccc2-c2ccc(-c3ccc(C(=O)OC)cc3)cc21
- fluorescence lifetime (in CN(C)C=O): 1.48 ns

Compound: c1ccc(C(=C(c2ccccc2)c2ccc(-c3ccc(-c4nc5c(-c6ccc(-c7ccc(C(=C(c8ccccc8)c8ccccc8)c8ccccc8)cc7)cc6)sc(-c6ccc(-c7ccc(C(=C(c8ccccc8)c8ccccc8)c8ccccc8)cc7)cc6)c5nc4-c4ccc(-c5ccc(C(=C(c6ccccc6)c6ccccc6)c6ccccc6)cc5)cc4)cc3)cc2)c2ccccc2)cc1
- fluorescence lifetime (in ClCCl): 6.7 ns

Compound: Cc1nc2c(c[n+]1C)CN1C(=O)N([C@H]3O[C@@H](CO)[C@H](O)[C@@H]3O)C=CC1=N2
- fluorescence lifetime (in CC#N): 3.61 ns
- fluorescence lifetime (in CC(C)=O): 3.12 ns
- fluorescence lifetime (in CCCO): 0.39 ns
- fluorescence lifetime (in CCO): 0.47 ns
- fluorescence lifetime (in CO): 0.55 ns
- fluorescence lifetime (in O): 1.58 ns
- fluorescence lifetime (in [2H]OC): 0.58 ns
- fluorescence lifetime (in [2H]OCC): 0.5 ns
- fluorescence lifetime (in [2H]O[2H]): 1.86 ns

Compound: CCNc1ccc2c(C(F)(F)F)cc(=O)oc2c1
- fluorescence lifetime (in C1CCC2CCCCC2C1): 3.67 ns
- fluorescence lifetime (in C1CCCCC1): 3.56 ns
- fluorescence lifetime (in CC1CCCCC1): 3.55 ns
- fluorescence lifetime (in CC#N): 5.23 ns
- fluorescence lifetime (in CC(C)=O): 5.08 ns
- fluorescence lifetime (in CC(C)O): 5.14 ns
- fluorescence lifetime (in CCC(C)CC): 3.39 ns
- fluorescence lifetime (in CCCC(C)C): 3.38 ns
- fluorescence lifetime (in CCCCCC): 3.3 ns
- fluorescence lifetime (in CCCCCCO): 5.23 ns
- fluorescence lifetime (in CCCCO): 5.24 ns
- fluorescence lifetime (in CCO): 5.04 ns
- fluorescence lifetime (in CCOC(C)=O): 4.83 ns
- fluorescence lifetime (in CO): 4.84 ns

Compound: c1ccc(N(c2ccccc2)c2ccc(-c3ccc4c(c3)C3(c5ccccc5Sc5ccccc53)c3cc(-c5ccc(N(c6ccccc6)c6ccccc6)cc5)ccc3-4)cc2)cc1
- fluorescence lifetime (in ClCCl): 1.2 ns

Compound: CC1(C)c2ccccc2N(c2ccc(-c3nnc(-c4cc(-c5ccccc5)c(-c5ccccc5)c(-c5ccccc5)c4-c4ccccc4)o3)cc2)c2ccccc21
- fluorescence lifetime (in c1ccc(-n2c(-c3c(-n4c5ccccc5c5ccccc54)cccc3-n3c4ccccc4c4ccccc43)nc3ccccc32)cc1): 5.5 ns
